Data taken from US20220288052A1, “COMPOUND FOR COMBINATION TREATMENT” (priority 2019, published 2022).

How the values were obtained:
NA transporter [1] = target: NA transporter (Homo sapiens, UniProt P23975); test: ^3H-uptake human, NA transporter; assay type: biochemical
Text: (§1) Compound (I) has been characterized as a monoamine reuptake inhibitor, based on the profile in a series of functional assays (Table 2).

5-HT transporter [2] = target: 5-HT transporter (Homo sapiens, UniProt P31645); test: ^3H-Citalopram binding, human
Sequence of 5-HT transporter (Homo sapiens, UniProt P31645) (P31645 whole entry): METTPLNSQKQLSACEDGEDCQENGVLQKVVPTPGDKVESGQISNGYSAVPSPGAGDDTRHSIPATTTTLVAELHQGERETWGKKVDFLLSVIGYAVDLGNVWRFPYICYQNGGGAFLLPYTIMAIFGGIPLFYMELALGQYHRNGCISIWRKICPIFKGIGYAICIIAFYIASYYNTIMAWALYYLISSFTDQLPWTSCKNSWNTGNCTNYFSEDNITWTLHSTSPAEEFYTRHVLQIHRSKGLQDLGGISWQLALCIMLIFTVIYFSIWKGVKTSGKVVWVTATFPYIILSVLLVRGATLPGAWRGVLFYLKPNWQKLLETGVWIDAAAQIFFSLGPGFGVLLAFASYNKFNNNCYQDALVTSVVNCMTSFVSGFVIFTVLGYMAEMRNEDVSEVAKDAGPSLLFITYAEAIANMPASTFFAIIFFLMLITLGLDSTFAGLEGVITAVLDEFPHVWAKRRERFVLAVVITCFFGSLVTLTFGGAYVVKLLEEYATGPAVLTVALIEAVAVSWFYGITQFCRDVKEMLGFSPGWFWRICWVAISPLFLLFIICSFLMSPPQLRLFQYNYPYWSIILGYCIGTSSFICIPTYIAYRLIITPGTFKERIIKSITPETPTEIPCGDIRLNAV
Text: as §1

NA transporter [3] = target: NA transporter (Rattus norvegicus, UniProt Q63380); test: ^3H-Nisoxetine binding, rat
Sequence of NA transporter (Rattus norvegicus, UniProt Q63380) (Q63380 1-617): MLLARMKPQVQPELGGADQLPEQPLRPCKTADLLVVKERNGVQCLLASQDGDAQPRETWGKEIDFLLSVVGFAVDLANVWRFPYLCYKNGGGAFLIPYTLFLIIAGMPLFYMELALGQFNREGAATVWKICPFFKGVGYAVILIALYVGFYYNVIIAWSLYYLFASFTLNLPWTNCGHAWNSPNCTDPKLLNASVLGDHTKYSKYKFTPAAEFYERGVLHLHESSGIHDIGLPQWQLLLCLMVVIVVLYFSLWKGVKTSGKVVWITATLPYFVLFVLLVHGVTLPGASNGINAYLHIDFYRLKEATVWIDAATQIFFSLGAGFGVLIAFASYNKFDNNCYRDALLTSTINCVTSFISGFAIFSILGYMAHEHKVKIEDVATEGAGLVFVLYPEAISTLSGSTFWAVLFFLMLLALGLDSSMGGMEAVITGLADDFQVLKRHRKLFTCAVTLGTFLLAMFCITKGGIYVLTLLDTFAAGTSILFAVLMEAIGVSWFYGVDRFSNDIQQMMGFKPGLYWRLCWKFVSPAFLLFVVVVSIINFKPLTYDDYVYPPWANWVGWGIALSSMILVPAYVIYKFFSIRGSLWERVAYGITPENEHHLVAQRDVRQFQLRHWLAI
Text: as §1

[4] = target: T1, dopamine transporter (DAT) (Mus musculus, UniProt Q61327); test: MPTP model of DAT inhibition (striatal dopamine depletion); assay type: in vivo, C57 mouse; parameters: Dopamine Mean ± SEM / DOPAC Mean ± SEM / HVA Mean ± SEM: unit not given here
T1 construct: in vivo DAT transporter occupancy (open bars) in mouse striatum; from tissue; host or cells: mouse striatum (in vivo; C57 mice in the MPTP model)
T1 sequence (Q61327 whole entry): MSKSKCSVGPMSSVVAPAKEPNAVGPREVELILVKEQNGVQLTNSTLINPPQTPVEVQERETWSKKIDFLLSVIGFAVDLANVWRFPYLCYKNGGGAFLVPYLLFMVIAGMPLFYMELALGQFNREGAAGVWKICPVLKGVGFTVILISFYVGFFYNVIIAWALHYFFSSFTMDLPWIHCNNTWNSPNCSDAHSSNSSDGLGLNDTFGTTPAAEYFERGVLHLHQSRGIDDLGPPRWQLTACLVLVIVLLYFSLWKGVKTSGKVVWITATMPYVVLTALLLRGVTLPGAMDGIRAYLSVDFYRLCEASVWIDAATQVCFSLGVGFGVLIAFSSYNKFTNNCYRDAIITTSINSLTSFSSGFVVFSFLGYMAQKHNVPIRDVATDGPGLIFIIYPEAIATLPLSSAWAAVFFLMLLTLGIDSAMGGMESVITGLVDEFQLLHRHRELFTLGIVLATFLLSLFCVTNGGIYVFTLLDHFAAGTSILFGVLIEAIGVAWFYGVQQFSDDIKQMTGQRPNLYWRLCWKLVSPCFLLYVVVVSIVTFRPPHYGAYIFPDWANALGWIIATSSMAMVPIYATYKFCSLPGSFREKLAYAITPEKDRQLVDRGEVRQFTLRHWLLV
Text: In this model compound (I) induced protection against the dopamine depletion induced by the entry of the MPTP metabolite MPP+ into the dopamine terminals of the mouse C57 striatal tissue.

5-HT transporter [5] = target: T2, 5-HT transporter (Mus musculus, UniProt Q60857); test: Ex vivo 5-HT uptake in mice
T2 construct: from tissue; host or cells: tissue of dosed animals (ex vivo)
T2 sequence (Q60857 whole entry): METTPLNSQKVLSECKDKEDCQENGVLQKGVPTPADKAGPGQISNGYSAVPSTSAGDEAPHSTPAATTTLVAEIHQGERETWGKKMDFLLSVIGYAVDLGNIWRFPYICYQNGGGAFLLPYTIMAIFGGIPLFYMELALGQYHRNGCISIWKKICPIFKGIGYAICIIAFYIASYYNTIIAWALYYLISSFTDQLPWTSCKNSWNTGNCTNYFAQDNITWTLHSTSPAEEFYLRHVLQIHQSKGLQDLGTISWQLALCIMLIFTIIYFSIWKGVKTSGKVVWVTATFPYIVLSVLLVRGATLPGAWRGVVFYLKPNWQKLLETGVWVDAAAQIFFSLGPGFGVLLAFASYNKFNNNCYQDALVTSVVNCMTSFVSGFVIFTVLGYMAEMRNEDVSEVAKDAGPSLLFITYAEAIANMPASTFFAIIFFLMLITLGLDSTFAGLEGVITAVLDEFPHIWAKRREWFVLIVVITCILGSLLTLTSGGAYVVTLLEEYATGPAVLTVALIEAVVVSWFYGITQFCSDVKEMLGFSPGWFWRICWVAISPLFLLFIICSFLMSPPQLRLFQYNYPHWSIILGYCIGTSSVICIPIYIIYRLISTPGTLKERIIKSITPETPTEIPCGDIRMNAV
Procedure: The in vivo receptor occupancy (RO %) of compound (I) was calculated at the MED values (DOSE) in mFST and in the mouse motility test using the formula RO % (estimated)=DOSE 100/(ED50+DOSE). The calculations were based on ED50 values in ex vivo uptake of 5-HT and NA and WIN in vivo binding.

[6] = test system: nialamide pre-treated mice; test: Nialamide-induced 5-HT syndrome (m5-HT); assay type: in vivo, mouse
Procedure: 50 mg/kg nialamide s.c. t=120 min. Compound (I) p.o. t=0. n=4.
Compound (I) was tested in a classical test often used to measure the ability of a compound to block the reuptake of 5-HT in vivo: nialamide-induced 5-HT syndrome (m5-HT). In addition, compound (I) was tested in a locomotor activity paradigm (mLA) as a measure of its ability to block the reuptake of DA and therefore induce motility. It is generally accepted that >60% DA transporter blockade is needed to induce increased motility in this test.

[7] = Metabolic stability in liver microsomes, rat; assay type: in vitro ADME
Procedure: (§2) The metabolic stability of compound (I) was tested in liver microsomes from all in house available species at 1 and 5 μM. One metabolite of 16 mass units higher than parent, was found in all incubations, except with human liver microsomes.

[8] = Metabolic stability in liver microsomes, guinea pig; assay type: in vitro ADME
Procedure: as §2

[9] = Metabolic stability in liver microsomes, monkey; assay type: in vitro ADME
Procedure: as §2

CYP 3A4 = CYP 3A4 (Homo sapiens, UniProt P08684); test: CYP450 inhibition, cocktail of selective substrates, 3A4; assay type: in vitro ADME; conditions: CYP 3A4, Midazolam to 1′-hydroxymidazolam; read-out: IC50 of compound (I)
Sequence of CYP 3A4 (P08684 whole entry): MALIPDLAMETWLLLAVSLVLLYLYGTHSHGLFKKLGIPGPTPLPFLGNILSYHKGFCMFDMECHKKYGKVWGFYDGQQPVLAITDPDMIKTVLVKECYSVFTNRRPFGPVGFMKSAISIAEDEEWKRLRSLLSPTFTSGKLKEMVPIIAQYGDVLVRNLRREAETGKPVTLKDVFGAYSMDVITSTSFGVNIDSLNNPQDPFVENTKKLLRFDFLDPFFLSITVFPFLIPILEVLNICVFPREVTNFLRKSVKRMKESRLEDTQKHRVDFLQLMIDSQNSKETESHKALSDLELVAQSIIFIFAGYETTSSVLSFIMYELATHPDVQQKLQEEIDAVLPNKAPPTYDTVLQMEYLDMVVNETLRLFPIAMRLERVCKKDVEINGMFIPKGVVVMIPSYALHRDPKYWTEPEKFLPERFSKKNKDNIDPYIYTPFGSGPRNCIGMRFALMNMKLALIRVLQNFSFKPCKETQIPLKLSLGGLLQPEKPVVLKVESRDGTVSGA
Procedure: Compound (I) was tested for CYP450 inhibition using a cocktail of selective substrates. […] This might be addressed later in a clinical study.

plasma protein = test: Plasma protein binding by equilibrium dialysis, mouse; assay type: in vitro ADME
Procedure: The plasma protein binding was tested in rat, mouse, dog and human plasma by equilibrium dialysis. The plasma protein binding of this compound is remarkably low (Table 24).

[10] = test system: rat corpus cavernosum strips; test: Corpus cavernosum contractility
Procedure: FIG. 29: Original traces showing the effect of compound (I) on resting tone in rat corpus cavernosum strips. Increasing concentrations (10^−9-3×10^−5 M) of compound (I) were added. Compound (I) induced small relaxations, while at the highest concentration (3×10^−5 M) contraction was observed occasionally (lower trace).
FIG. 30: Average results showing the effect of compound (I) on resting tone in rat corpus cavernosum strips. Increasing concentrations (10^−9-3×10^−5 M) of compound (I) were added. Compound (I) induced small relaxations, while at the highest concentration (3×10^−5 M) contraction was observed occasionally (lower trace). Compound (I) responses were obtained in the presence of vehicle, sildenafil (10^−7 M), guanethidine (10^−5 M), and L-NOARG (10^−4 M). Results are means±s.e. mean of preparations from 5 rats.
FIG. 31: Original traces showing relaxations to compound (I) in rat corpus cavernosum strips contracted with phenylephrine (Phe). Representative traces show compound (I) relaxation in the presence of vehicle, guanethidine (10^−5 M), L-NOARG (10^−4 M), sildenafil (10^−7 M), in phenylephrine-contracted preparations.
FIG. 32: Average relaxations induced by compound (I) in rat corpus cavernosum strips. In phenylephrine-contracted preparations, increasing concentrations (10^−9-3×10^−5 M) of compound (I). […]

hERG channels = hERG channels (Homo sapiens, UniProt Q12809); test: cell-based
Sequence of hERG channels (Q12809 whole entry): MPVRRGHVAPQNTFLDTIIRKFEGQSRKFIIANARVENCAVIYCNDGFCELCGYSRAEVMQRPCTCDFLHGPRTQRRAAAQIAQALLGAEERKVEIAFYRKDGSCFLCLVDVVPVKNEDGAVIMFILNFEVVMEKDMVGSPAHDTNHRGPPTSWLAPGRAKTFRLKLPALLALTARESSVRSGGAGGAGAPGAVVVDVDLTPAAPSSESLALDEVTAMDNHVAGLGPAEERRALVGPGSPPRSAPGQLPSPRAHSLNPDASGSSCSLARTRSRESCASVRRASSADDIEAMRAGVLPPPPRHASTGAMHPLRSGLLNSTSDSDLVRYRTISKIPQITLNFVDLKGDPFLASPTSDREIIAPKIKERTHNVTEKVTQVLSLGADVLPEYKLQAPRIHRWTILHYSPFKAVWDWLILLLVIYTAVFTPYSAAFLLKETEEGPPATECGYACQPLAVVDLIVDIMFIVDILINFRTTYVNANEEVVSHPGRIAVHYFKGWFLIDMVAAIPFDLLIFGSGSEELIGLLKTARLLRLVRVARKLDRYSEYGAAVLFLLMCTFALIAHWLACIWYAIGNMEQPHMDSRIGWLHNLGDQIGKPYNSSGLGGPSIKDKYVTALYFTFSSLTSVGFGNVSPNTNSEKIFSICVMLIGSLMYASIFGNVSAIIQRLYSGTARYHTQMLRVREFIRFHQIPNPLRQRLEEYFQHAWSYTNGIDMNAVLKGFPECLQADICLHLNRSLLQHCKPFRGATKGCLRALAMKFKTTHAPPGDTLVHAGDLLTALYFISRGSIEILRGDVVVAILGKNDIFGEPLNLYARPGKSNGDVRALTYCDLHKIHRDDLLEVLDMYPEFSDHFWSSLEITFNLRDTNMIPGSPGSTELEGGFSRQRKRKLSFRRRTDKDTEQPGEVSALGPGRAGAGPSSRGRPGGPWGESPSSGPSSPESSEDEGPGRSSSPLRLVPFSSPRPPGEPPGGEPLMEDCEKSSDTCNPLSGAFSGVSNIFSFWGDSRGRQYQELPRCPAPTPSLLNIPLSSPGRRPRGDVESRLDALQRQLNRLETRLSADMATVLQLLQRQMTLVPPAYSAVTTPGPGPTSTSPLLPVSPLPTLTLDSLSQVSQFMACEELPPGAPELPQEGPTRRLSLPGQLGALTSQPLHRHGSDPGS
Procedure: A HEK293 cell line stably expressing Kv11.3 for hERG and KCNE1 (minK) was established. The effect of compound (I) on the amount of current carried by hERG channels was assessed in whole-cell patch clamp experiments. The channels were activated by a voltage protocol designed to simulate a human cardiac action potential.

[11] = Bioavailability study in rat
[12] = Cardiovascular safety in anaesthetised dogs
Procedure: Data presented are mean±s.e. mean where n=4 for all time points, excluding D2t7 where n=3, D3t7 where n=2, and D4t7 and D4t26 where no data was available. Animals received 1, 3, 10, and 30 mg/kg compound (I) as 4 intravenous infusions (starting at t0, D1t30, D2t30 and D3t30, respectively). Each dose was administered over 5 min, using an infusion pump, and the dose volume for each treatment was 2 ml/kg, with the exception of the fourth dose which was 3 ml/kg.
Data presented are mean±s.e. mean where n=4 for all time points, excluding D4t7 and D4t26 where no data was available. Animals received 1, 3, 10, and 30 mg/kg compound (I) as 4 intravenous infusions (starting at t0, D1t30, D2t30 and D3t30, respectively). Each dose was administered over 5 min, using an infusion pump, and the dose volume for each treatment was 2 ml/kg, with the exception of the fourth dose which was 3 ml/kg.

[13] = 7.5 mg/kg p.o. 0 min + MPTP 25 mg/kg s.c. 60 min
[14] = 15 mg/kg p.o. 0 min + MPTP 25 mg/kg s.c. 60 min
[15] = 30 mg/kg p.o. 0 min + MPTP 25 mg/kg s.c. 60 min

Sequence of NA transporter (Homo sapiens, UniProt P23975) (P23975 whole entry): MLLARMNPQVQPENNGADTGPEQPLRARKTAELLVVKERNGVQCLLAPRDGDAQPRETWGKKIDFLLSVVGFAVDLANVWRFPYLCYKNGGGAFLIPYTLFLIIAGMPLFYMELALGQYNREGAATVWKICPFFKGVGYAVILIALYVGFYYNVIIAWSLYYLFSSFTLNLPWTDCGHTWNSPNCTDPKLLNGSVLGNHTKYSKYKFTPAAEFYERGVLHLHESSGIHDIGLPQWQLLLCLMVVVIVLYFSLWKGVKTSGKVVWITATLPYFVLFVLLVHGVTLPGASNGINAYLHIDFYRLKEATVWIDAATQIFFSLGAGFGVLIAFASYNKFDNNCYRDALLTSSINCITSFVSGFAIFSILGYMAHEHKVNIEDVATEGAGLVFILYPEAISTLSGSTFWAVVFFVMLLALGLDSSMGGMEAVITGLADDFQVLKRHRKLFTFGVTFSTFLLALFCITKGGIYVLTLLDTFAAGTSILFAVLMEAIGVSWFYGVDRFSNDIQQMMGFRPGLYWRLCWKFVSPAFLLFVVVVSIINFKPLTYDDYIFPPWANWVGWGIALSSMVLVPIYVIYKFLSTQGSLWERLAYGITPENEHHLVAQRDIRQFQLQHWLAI

`O=c1ccc2ccc(O[C@@H]3C[C@H]4CC[C@@H](C3)N4)cc2o1` [Compound (I), exo-7-(8-aza-bicyclo[3.2.1]oct-3-yloxy)-chromen-2-one] showed an IC50 (NA transporter [1]) of 46 nM, a Ki (NA transporter [1]) of 50.1 nM and a Human transporter ratio (NA transporter [1]; NA versus 5-HT) of 26. The Ki (5-HT transporter [2]) was 0.24 nM, the Ki (NA transporter [3]) was 1300 nM and the “DOPAC Mean ± SEM” value [4, 13] was 1 ± 0.2. The “Dopamine Mean ± SEM” value [4, 13] was 6.3 ± 1.1, the “HVA Mean ± SEM” value [4, 13] was 0.7 ± 0.1 and the “DOPAC Mean ± SEM” value [4, 14] was 1.7 ± 0.1^. For the same compound, the “Dopamine Mean ± SEM” value [4, 14] was 12.5 ± 0.7, the “HVA Mean ± SEM” value [4, 14] was 1 ± 0.1 and the “Protection against MPTP-induced dopamine depletion” value ([4]; 15 mg/kg, C57 mouse striatal tissue) was “approximately 90%”. For the same compound, the “DOPAC Mean ± SEM” value [4, 15] was 2.1 ± 0.2^, the “Dopamine Mean ± SEM” value [4, 15] was 14.7 ± 1.2 and the “HVA Mean ± SEM” value [4, 15] was 1.2 ± 0.1. For the same compound, the “5-HT RO %” value (5-HT transporter [5]; estimated at MED in mFST (NMRI mice), DOSE 1 mg/kg) was 34%, the “5-HT RO %” value (5-HT transporter [5]; estimated at MED in mMotility, DOSE 10 mg/kg) was 84% and the ED50 (5-HT transporter [5]; mouse, po) was 1.9 mg/kg. The MED ([6]; m5-HT, p.o. 0 min) was 0.1 mg/kg, the “Potency in 5-HT syndrome relative to the reference compounds tested” value ([6]; nialamide pre-treated mice) was 100 times and the “Stability at 1 μM” value [7] was 40%. The “Stability at 5 μM” value [7] was 61%, the “Stability at 1 μM” value [8] was 98% and the “Stability at 5 μM” value [8] was 82%. The “Stability at 1 μM” value [9] was 79%, the “Stability at 5 μM” value [9] was 88% and the IC50 (CYP 3A4) was > 100000 nM. The fraction unbound at 2710 ng/ml (plasma protein) was 0.747, the “Effect on resting tone” value ([10]; resting corpus cavernosum strips, 10^−9-3×10^−5 M) was “only small relaxations” and the “Relaxation of contracted strips” value ([10]; strips contracted with phenylephrine (10^−6 M)) was “concentration-dependent relaxations were observed at higher concentrations”. The Ki (hERG channels) was > 10000 nM, the T½ i.v. ([11]; rat, 2.5 mg/kg i.v., 2.5 mg/kg) was 36 min and the “Tolerability of i.v. dose” value ([11]; rats, 10 mg/kg i.v.) was “*Rats could not tolerate 10 mg/kg i.v. because of exaggerated dopaminergic effects”. For the same compound, the Heart rate ([12]; 1, 3, 10 and 30 mg/kg i.v.) was “Dose-dependent increases”, the RR interval ([12]; 1, 3, 10 and 30 mg/kg i.v.) was “dose-dependent decreases” and the “Arterial blood pressure (mean, systolic and diastolic)” value ([12]; 1, 3, 10 and 30 mg/kg i.v., apparent decrease following 10 and 30 mg/kg) was “No consistent changes”. The “PR interval and QRS duration” value ([12]; 1, 3, 10 and 30 mg/kg i.v., potential PR shortening at 30 mg/kg) was “relatively unaffected”, the concentration at 5 min ([12]; beagle, dog, plasma, intravenous) was 6500 to 15000 ng/mL and the “QTcF and QTcV intervals” value ([12]; corrected for heart rate/RR interval, also when paced at 90 or 110 bpm) was “clear dose-dependent increase”.
